{
  "source": "paper PMC12281424",
  "about": "“A Rac-specific competitive inhibitor of guanine nucleotide binding reduces metastasis in triple-negative breast cancer” (Cell Reports Medicine, 2025)",
  "key": {"RAC2": {"target": "T1, RAC2 (Homo sapiens, UniProt P15153)", "T1 construct": "Full-length RAC2, RHOG, RHOA and CDC42 were purified as previously described; made in house", "assay": "GEF-stimulated nucleotide exchange", "assay_type": "biochemical", "parameters": "dose or concentration left out as unconfirmed", "from_the_text": "(§1) Figure 4 A41 selectively impairs RAC protein activation (A) Representative surface plasmon resonance (SPR) sensograms of binding of immobilized RHOA or CDC42 with indicated increasing concentrations of A41 (N > 3). (B) Effect of A41 on GEF-stimulated RAC2, RHOG, RHOA, and CDC42 nucleotide exchange. […] Kobs is expressed as mean ± SEM. ∗p < 0.001 vs. control. (C) Effect of A41 on RAC1 G30S activation. […] The GEF TRIO was used to induce nucleotide exchange (N = 3). Data are expressed as mean ± SEM. (D) Immunoblot analysis and associated quantification of RAC-GTP level and total RAC expression in NIH-3T3 fibroblasts expressing RAC wild-type (RAC1 WT) or RAC1 oncomutants (RAC1 P29S and RAC1b) in the absence (Ctrl) and presence of A41 (10 μM). RAC activation was measured as the ratio of RAC-GTP to total RAC and expressed relative to Ctrl condition. Data are presented as mean ± SEM. ∗∗∗p < 0.001 vs. controls.\n(§2) Full-length RAC1 carrying a 6xHis tag in C-terminus was purified as previously described.[64] […] Specific exchange activity toward RHOA determined by fluorescence kinetics is 0.04 s^−1M^−1.\n(§3) Nucleotide exchange kinetics were measured by recording the increase in fluorescence following the association of mant-GTP on GDP-bound RHO protein or the decay in fluorescence following the dissociation of mant-GDP pre-loaded onto the RHO protein (λEx = 360 nm, λEm = 440 nm) as previously described.[39] […]"}, "RHOG": {"target": "T2, RHOG (Homo sapiens, UniProt P84095)", "T2 construct": "Full-length RAC2, RHOG, RHOA and CDC42 were purified as previously described; made in house", "assay": "GEF-stimulated nucleotide exchange", "assay_type": "biochemical", "parameters": "dose or concentration left out as unconfirmed", "from_the_text": "as §1, §2, §3"}, "Dopamine D2S": {"target": "Dopamine D2S (Homo sapiens, UniProt P14416)", "assay": "Safety screen", "assay_type": "binding", "method": "(§4) Blood cell counts, kinase profiler, safety screen, bacterial cytotoxicity, Ames, micronucleus assays were performed by the company Eurofins (France)."}, "PKCε(h)": {"target": "PKCε(h) (Homo sapiens, UniProt Q02156)", "sequence (Q02156 whole entry)": "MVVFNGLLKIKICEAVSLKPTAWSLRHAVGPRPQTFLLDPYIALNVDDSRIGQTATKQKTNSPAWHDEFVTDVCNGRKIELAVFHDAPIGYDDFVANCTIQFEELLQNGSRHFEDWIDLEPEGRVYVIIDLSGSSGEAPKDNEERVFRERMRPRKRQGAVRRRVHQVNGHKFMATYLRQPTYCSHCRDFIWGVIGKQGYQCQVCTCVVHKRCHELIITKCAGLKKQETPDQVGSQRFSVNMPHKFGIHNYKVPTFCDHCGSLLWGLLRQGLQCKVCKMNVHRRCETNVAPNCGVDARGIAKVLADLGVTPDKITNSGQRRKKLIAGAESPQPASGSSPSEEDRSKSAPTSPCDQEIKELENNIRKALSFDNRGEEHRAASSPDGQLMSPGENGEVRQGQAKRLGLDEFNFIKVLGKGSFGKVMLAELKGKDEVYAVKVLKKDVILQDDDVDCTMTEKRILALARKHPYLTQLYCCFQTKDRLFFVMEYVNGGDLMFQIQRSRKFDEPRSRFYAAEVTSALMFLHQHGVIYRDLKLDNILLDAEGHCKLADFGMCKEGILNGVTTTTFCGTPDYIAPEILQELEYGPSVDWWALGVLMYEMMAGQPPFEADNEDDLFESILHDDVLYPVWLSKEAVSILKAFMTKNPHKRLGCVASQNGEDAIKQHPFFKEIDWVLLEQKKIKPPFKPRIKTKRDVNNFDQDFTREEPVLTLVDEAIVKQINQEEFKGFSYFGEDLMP", "assay": "Kinase Profiler", "assay_type": "biochemical", "method": "(§5) The kinase profiler was performed by the company Eurofins (Discovery, Panlab and Cerep)."}, "JNK1α1(h)": {"target": "JNK1α1(h) (Homo sapiens, UniProt P45983)", "sequence (P45983 1-384 isoform P45983-2)": "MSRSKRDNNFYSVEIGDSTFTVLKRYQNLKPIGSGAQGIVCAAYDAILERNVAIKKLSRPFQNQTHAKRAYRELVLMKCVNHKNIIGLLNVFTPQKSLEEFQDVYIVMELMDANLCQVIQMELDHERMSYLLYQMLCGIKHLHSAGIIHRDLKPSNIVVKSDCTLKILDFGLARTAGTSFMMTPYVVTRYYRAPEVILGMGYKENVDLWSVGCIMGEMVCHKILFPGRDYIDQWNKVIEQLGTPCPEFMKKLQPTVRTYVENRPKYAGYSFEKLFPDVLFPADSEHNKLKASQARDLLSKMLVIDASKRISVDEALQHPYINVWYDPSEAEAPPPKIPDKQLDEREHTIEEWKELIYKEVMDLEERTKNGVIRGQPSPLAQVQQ", "assay": "Kinase Profiler", "assay_type": "biochemical", "method": "as §5"}, "IKKβ(h)": {"target": "IKKβ(h) (Homo sapiens, UniProt O14920)", "sequence (O14920 whole entry)": "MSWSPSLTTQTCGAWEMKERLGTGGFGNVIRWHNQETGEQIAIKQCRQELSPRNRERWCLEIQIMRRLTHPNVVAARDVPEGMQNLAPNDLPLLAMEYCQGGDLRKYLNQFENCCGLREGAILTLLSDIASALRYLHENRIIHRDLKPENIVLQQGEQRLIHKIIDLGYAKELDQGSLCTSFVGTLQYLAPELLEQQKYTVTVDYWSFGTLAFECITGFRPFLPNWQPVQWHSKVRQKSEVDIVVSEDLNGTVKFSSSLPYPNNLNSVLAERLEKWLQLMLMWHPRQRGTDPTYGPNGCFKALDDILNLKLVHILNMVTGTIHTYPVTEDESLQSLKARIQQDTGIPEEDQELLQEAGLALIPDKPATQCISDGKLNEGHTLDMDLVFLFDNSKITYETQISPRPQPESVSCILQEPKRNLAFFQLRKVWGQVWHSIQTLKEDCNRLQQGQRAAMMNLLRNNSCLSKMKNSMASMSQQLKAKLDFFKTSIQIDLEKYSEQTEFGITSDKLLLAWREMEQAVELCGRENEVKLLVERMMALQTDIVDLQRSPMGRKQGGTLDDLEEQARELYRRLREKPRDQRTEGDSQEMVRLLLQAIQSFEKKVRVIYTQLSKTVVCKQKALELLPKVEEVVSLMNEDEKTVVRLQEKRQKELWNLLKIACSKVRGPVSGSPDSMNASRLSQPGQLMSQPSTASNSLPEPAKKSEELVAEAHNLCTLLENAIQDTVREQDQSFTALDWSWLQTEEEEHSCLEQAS", "assay": "Kinase Profiler", "assay_type": "biochemical", "method": "(§6) Blood cell counts, kinase profiler, safety screen, bacterial cytotoxicity, Ames, micronucleus assays were performed by the company Eurofins (France). The kinase profiler was performed by the company Eurofins (Discovery, Panlab and Cerep)."}, "Opiate κ(OP2, KOP)": {"target": "Opiate κ(OP2, KOP) (Homo sapiens, UniProt P41145)", "assay": "Safety screen", "assay_type": "binding", "method": "as §6"}, "PDK1(h)": {"target": "PDK1(h) (Homo sapiens, UniProt O15530)", "sequence (O15530 whole entry)": "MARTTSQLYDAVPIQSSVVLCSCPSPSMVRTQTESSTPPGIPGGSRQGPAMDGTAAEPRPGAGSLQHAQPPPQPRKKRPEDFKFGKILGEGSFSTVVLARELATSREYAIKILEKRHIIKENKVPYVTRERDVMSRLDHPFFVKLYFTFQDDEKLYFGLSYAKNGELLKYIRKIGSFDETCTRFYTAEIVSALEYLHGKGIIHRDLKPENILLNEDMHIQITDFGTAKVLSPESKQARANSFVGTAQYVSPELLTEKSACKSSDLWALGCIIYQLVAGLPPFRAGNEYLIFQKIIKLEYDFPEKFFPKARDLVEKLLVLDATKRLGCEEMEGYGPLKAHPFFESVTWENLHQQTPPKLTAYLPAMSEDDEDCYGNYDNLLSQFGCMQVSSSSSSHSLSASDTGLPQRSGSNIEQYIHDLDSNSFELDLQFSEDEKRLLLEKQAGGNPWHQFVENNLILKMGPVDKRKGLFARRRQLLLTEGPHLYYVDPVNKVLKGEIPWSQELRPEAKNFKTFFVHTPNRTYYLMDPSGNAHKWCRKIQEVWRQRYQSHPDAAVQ", "assay": "Kinase Profiler", "assay_type": "biochemical", "method": "as §6"}, "CK1(y)": {"system": "CK1(y)", "assay": "Kinase Profiler", "assay_type": "biochemical, yeast", "method": "as §5"}, "Syk(h)": {"target": "Syk(h) (Homo sapiens, UniProt P43405)", "assay": "Kinase Profiler", "assay_type": "biochemical", "method": "as §5"}, "[1]": {"system": "GABAA, Ro-15-1788, Hippocampus", "assay": "Safety screen", "assay_type": "binding, rat", "method": "as §4"}, "BrSK1(h)": {"target": "BrSK1(h) (Homo sapiens, UniProt Q8TDC3)", "sequence (Q8TDC3 whole entry)": "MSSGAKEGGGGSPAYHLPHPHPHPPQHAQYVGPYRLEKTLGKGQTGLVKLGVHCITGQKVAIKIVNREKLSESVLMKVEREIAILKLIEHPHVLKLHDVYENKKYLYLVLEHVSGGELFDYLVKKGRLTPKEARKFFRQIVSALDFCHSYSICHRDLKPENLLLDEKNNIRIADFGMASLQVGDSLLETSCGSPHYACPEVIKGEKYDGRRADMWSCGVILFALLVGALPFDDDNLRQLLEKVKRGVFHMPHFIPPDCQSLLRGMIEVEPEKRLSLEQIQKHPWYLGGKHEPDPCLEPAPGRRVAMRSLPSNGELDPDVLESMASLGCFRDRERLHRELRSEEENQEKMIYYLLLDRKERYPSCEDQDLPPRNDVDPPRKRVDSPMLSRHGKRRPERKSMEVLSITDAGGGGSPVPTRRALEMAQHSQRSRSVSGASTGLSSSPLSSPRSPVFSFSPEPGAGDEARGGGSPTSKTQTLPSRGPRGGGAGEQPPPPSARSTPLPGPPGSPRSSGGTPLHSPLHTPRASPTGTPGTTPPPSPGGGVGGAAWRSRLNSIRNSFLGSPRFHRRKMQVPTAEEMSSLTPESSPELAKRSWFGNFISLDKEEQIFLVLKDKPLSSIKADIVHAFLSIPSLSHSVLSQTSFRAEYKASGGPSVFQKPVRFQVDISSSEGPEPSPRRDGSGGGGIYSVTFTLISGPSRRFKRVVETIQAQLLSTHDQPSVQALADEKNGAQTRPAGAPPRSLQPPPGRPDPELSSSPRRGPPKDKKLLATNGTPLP", "assay": "Kinase Profiler", "assay_type": "biochemical", "method": "as §6"}, "CHK2(I157T)(h)": {"target": "CHK2(I157T)(h) (Homo sapiens, UniProt O96017, I157T)", "assay": "Kinase Profiler", "assay_type": "biochemical", "method": "as §5"}, "CaMKIV(h)": {"target": "CaMKIV(h) (Homo sapiens, UniProt Q16566)", "sequence (Q16566 whole entry)": "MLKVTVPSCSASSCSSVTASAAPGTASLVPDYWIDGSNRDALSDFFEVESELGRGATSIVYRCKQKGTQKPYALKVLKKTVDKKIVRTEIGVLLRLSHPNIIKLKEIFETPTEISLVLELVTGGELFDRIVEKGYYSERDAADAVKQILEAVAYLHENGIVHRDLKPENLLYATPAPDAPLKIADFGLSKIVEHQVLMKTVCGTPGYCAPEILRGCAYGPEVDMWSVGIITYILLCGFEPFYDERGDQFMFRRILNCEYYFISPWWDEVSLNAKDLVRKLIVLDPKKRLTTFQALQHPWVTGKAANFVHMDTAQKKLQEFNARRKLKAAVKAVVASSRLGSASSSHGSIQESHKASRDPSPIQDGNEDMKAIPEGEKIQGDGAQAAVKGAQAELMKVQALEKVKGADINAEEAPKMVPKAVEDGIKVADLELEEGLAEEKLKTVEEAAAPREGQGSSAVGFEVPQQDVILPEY", "assay": "Kinase Profiler", "assay_type": "biochemical", "method": "as §5"}, "CK1γ3(h)": {"target": "CK1γ3(h) (Homo sapiens, UniProt Q9Y6M4)", "sequence (Q9Y6M4 whole entry)": "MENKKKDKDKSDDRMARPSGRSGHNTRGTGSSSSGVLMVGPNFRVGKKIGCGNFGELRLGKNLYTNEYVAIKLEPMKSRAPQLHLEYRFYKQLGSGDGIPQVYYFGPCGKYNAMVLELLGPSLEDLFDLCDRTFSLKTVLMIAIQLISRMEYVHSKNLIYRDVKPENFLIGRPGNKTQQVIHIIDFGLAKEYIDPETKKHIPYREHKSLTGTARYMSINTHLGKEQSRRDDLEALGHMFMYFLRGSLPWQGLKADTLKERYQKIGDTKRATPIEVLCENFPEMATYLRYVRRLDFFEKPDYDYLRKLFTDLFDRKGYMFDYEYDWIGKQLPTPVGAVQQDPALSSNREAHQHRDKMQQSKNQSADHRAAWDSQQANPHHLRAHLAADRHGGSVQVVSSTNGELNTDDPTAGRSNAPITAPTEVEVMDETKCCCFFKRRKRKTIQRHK", "assay": "Kinase Profiler", "assay_type": "biochemical", "method": "as §6"}, "HPK1(h)": {"target": "HPK1(h) (Homo sapiens, UniProt Q92918)", "sequence (Q92918 whole entry)": "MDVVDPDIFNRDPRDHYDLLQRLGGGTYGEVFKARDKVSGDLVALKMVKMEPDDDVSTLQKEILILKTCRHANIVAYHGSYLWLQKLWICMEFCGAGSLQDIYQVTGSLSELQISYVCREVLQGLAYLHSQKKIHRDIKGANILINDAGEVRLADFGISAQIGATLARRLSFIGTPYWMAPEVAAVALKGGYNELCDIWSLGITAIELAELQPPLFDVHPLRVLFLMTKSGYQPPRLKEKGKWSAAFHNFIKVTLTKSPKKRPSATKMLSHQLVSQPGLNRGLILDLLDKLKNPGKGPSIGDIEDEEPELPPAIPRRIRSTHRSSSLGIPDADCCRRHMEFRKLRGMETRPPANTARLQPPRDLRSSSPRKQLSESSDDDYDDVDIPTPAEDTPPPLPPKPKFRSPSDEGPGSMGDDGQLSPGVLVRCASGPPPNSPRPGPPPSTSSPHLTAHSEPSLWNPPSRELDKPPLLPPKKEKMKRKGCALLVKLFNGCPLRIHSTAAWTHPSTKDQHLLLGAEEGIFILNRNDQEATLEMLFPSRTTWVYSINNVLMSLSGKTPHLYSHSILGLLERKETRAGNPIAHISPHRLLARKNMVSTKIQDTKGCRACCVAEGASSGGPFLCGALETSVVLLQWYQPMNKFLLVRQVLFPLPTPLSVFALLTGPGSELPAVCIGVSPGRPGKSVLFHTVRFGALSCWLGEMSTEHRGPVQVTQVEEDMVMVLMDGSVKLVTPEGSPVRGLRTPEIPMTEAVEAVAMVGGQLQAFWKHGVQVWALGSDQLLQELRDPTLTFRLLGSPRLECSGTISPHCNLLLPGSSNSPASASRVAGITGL", "assay": "Kinase Profiler", "assay_type": "biochemical", "method": "as §5"}},
  "data": [
    {"smiles": "COc1ccc(OC)c(NS(=O)(=O)c2ccc(NC(=O)CCSc3ccc(C)cc3)cc2)c1", "note": "[Compound A41]", "values": [
      {"measurement": "TRIO-induced activation of RAC2", "setting": "RAC2", "result": "reduced"},
      {"measurement": "TRIO-induced RHOG activation", "setting": "RHOG", "result": "no effect"},
      {"measurement": "% inh.", "setting": "Dopamine D2S", "result": 35, "unit": "%"},
      {"measurement": "Activity(%)", "setting": "PKCε(h)", "result": 102, "unit": "%"},
      {"measurement": "Activity(%)", "setting": "JNK1α1(h)", "result": 94, "unit": "%"},
      {"measurement": "Activity(%)", "setting": "IKKβ(h)", "result": 110, "unit": "%"},
      {"measurement": "% inh.", "setting": "Opiate κ(OP2, KOP)", "result": 10, "unit": "%"},
      {"measurement": "Activity(%)", "setting": "PDK1(h)", "result": 107, "unit": "%"},
      {"measurement": "Activity(%)", "setting": "CK1(y)", "result": 98, "unit": "%"},
      {"measurement": "Activity(%)", "setting": "Syk(h)", "result": 91, "unit": "%"},
      {"measurement": "% inh.", "setting": "[1]", "result": -12, "unit": "%"},
      {"measurement": "Activity(%)", "setting": "BrSK1(h)", "result": 86, "unit": "%"},
      {"measurement": "Activity(%)", "setting": "CHK2(I157T)(h)", "result": 112, "unit": "%"},
      {"measurement": "Activity(%)", "setting": "CaMKIV(h)", "result": 114, "unit": "%"},
      {"measurement": "Activity(%)", "setting": "CK1γ3(h)", "result": 101, "unit": "%"},
      {"measurement": "Activity(%)", "setting": "HPK1(h)", "result": 98, "unit": "%"}
    ]}
  ]
}
